Earlier results as cited in patent publication US8961928B2, “Ligand and metal complex having the same” (National Chiao Tung University, priority 2012, dated 2015).
Where two headings read alike, the source gives them in different places.

O=C([O-])CN(CCN(CC(=O)[O-])CC(=O)[O-])CCN(CC(=O)[O-])CC(=O)[O-].[Gd+3] [[Gd(DTPA)]^2−]
Relaxivity r1 (pH 7.6 ± 0.1, data from Inorg. Chem., 2001, 40, 2170-2176): 3.89 ± 0.03 mM⁻¹ s⁻¹

O=C([O-])CN(CCCN(CC(=O)[O-])CC(=O)[O-])CCN(CC(=O)[O-])CC(=O)[O-].[Gd+3] [[Gd(TTDA)]^2−]
Relaxivity r1 (pH 7.5 ± 0.1, data from Inorg. Chem., 2005, 44, 382): 3.85 ± 0.03 mM⁻¹ s⁻¹
